Experimental data published in patent publication US9394562B2, “Soil microorganism, novel oxidoreductase separated from the soil microorganism, gene encoding the oxidoreductase, and method for producing aglycones using the microorganism, the oxidoreductase and the gene” (AMOREPACIFIC CORPORATION, priority 2010, dated 2016).
Each block holds one compound with its values, some of them ahead of it.

How the values were obtained:
Type in all cases: biochemical
[1] = tested on: oxidoreductase enzyme derived from Rhizobium sp. GIN611; assay: Substrate specificity for glycone binding (α-/β-bonding); conditions: nitrophenyl glycoside used as substrate of the enzyme
From the text: Specificity of the enzyme for α-bonding and β-bonding was investigated using 4-nitrophenyl α-D-glucopyranoside, 4-nitrophenyl β-D-glucopyranoside, 4-nitrophenyl α-D-galactopyranoside and p-nitrophenyl β-D-galactopyranoside.

[2] = tested on: deglycosylating enzyme isolated from the selected Rhizobium sp. GIN611; assay: Substrate specificity of deglycosylating enzyme isolated from Rhizobium sp. GIN611; conditions: ginsenoside as substrate
From the text: Investigation of the substrate specificity using a deglycosylating enzyme isolated from the selected Rhizobium sp. […] The inventors of the present disclosure have disrupted and centrifuged the microorganism and produced a cell extract comprising the active enzyme from a supernatant.

[3] = tested on: oxidoreductase enzyme derived from Rhizobium sp. GIN611; assay: Deglycosylation activity for flavonoid glycoside substrates by MALDI mass spectrometry; conditions: flavonoid glycoside as substrate
From the text: After reacting using ginsenoside Rh2, ginsenoside F2, ginsenoside Rb1, ginsenoside Rb2, ginsenoside Rc, ginsenoside Rb3, ginsenoside F1, ginsenoside Re or the isoflavone daidzin as a substrate, followed by extraction by adding the same volume of ethyl acetate, the ethyl acetate layer was dried and then dissolved again in ethanol, which was subjected to activity measurement by MALDI mass spectrometry.
The oxidoreductase enzyme derived from Rhizobium sp. GIN611, whose expression was induced, was reacted with the flavonoid icariin, camelliaside A or camelliaside B as a substrate in the manner described above and activity was measured by MALDI mass spectrometry. Oxidation of galactose attached to camelliaside A and deglycosylation activity thereof were identified. Also, oxidation of xylose attached to camelliaside B and deglycosylation activity thereof were identified. That is to say, the enzyme was confirmed to show deglycosylation activity for sugars attached to the flavonoid-based aglycones and to capable of degrading not only glucose but also galactose and xylose by oxidizing them (see FIGS. 12 and 13).

Compound: O=[N+]([O-])c1ccc(O[C@H]2O[C@H](CO)[C@@H](O)[C@H](O)[C@H]2O)cc1 [p-Nitrophenyl α-D-glucopyranoside]
Relative activity (%) [1]: 103%

Compound: O=[N+]([O-])c1ccc(O[C@H]2O[C@H](CO)[C@H](O)[C@H](O)[C@H]2O)cc1 [p-Nitrophenyl α-D-galactopyranoside]
Relative activity (%) [1]: 201%

Compound: CC(C)=CCC[C@](C)(O[C@@H]1O[C@H](CO)[C@@H](O)[C@H](O)[C@H]1O)[C@H]1CC[C@]2(C)[C@@H]1[C@H](O)C[C@@H]1[C@@]3(C)CC[C@H](O)C(C)(C)[C@@H]3CC[C@]12C [ginsenoside CK, 20-O-β-D-glucopyranosyl-20(S)-protopanaxadiol]
activity for substrate [2]: high activity

Compound: C[C@@H]1O[C@@H](OC[C@H]2O[C@@H](Oc3c(-c4ccc(O)cc4)oc4cc(O)cc(O)c4c3=O)[C@H](O[C@@H]3O[C@H](CO)[C@H](O)[C@H](O)[C@H]3O)[C@@H](O)[C@@H]2O)[C@H](O)[C@H](O)[C@H]1O [camelliaside A, kaempferol 3-O-(2-O-galactopyranosyl-6-O-rhamnopyranosyl)glucopyranoside]
oxidation of attached sugar and deglycosylation activity [3]: identified

Compound: C[C@@H]1O[C@@H](OC[C@H]2O[C@@H](Oc3c(-c4ccc(O)cc4)oc4cc(O)cc(O)c4c3=O)[C@H](O[C@@H]3OC[C@@H](O)[C@H](O)[C@H]3O)[C@@H](O)[C@@H]2O)[C@H](O)[C@H](O)[C@H]1O [camelliaside B, kaempferol 3-O-(2-O-xylopyranosyl-6-O-rhamnopyranosyl)glucopyranoside]
oxidation of attached sugar and deglycosylation activity [3]: identified

Now from value to compound:

Relative activity (%) [1]: 400%
Compound: O=[N+]([O-])c1ccc(O[C@@H]2O[C@H](CO)[C@H](O)[C@H](O)[C@H]2O)cc1 [p-Nitrophenyl β-D-galactopyranoside]

Relative activity (%) [1]: 100%
Compound: O=[N+]([O-])c1ccc(O[C@@H]2O[C@H](CO)[C@@H](O)[C@H](O)[C@H]2O)cc1 [p-Nitrophenyl β-D-glucopyranoside]
